Data set [1] is described as follows: Inhibition of porcine platelets cPLA2 alpha using 1-stearoyl-2-arachidonoyl-sn-glycero-3-phosphocholine as substrate incubated for 60 mins by RP-HPLC -MS analysis. The arrangement: species or system Sus scrofa.
The nature of data set [2]: Drug metabolism in human CaCo-2 cells assessed as beta-oxidation of pentanoic acid chain by measuring 3-(5-{[5-Chloro-1-(2,4-dichlorobenzyl)indol-3-yl]methyl}-2H-tetrazol-2-yl) propionic acid formation at 10 uM. The class given is ADME, cell-based. The conditions noted are these: caco-2, 10 µM.
The nature of data set [3]: Apparent permeability coefficient in human CaCo-2 cells at 10 uM incubated for 2 hrs by HPLC-MS analysis. The class given is ADME, cell-based. A general note: Caco-2 cells form a polarised layer with tight junctions and transporters.
Data set [4] can be described thus: Aqueous solubility of compound in phosphate buffered saline at pH 7.4 incubated for 10 min by RP-HPLC analysis. The class given is physicochemical.
Data set [5] can be described thus: Lipophilicity, logP of compound in acetonitrile/phosphate buffered saline at pH 7.4 by RP-HPLC analysis. The class given is physicochemical.
The species named for another data set is Sus scrofa. The data set is described as follows: Inhibition of porcine platelets cPLA2 alpha using 1-stearoyl-2-arachidonoyl-sn-glycero-3-phosphocholine as substrate at 10 uM incubated for 60 mins by RP-HPLC -MS analysis relative to control.

Values after ≈ are worked out from the molar mass of the structure shown. Active and inactive are the calls of the source. No cut-off for these calls is given here. Bounds are passed on as bounds.

By IC50 is commonly meant the midpoint of a concentration-inhibition curve. In general, Papp refers to a coefficient for how fast a substance crosses the barrier. By solubility is commonly meant how much of the substance goes into solution per volume. Low readings indicate little dissolved substance, high ones much dissolved substance. For orientation: logP means a log measure of how a compound divides between an organic and an aqueous phase. Lower therefore signals lower lipophilicity. For orientation: inhibition means the share of the control response that was lost under treatment.

Regarding `O=C(O)CCCCn1nnc(Cc2cn(Cc3ccc(Cl)cc3Cl)c3ccc(Cl)cc23)n1`, 0.071 µM corresponded to half-maximal inhibition in data set [1] (IC50). Besides, in data set [2], the Drug metabolism entry is reported as “Metabolite_Detected”. Further, the Papp at 2 h, 10 µM in data set [3] came to 15 ×10⁻⁶ cm/s. In data set [4], this compound came in with a solubility at 10 min of under 1 µg/mL. In data set [5], this compound yielded a logP of 4.7.

As to `COc1ccc2c(c1)c(CC(=O)O)c(C)n2C(=O)c1ccc(Cl)cc1` [INDOMETHACIN], the Papp at 2 h, 10 µM in data set [3] was determined as 27 ×10⁻⁶ cm/s. The amount in solution in data set [4] (solubility at 10 min) came to 260 µg/mL (≈ 727 µM). The same compound yielded a logP in data set [5] of 2.9.

As for `O=C(O)CCCCn1nnc(Cc2cn(Cc3ccc(Cl)cc3Cl)c3cc(F)ccc23)n1`, in data set [1], the IC50 is 0.75 µM.

Take `O=C(O)CCCCn1nnc(Cc2cn(Cc3ccccc3)c3ccccc23)n1`: in the data set filed under Sus scrofa, the inhibition was 41%. The IC50 in data set [1] is over 10 µM.

`O=C(O)CCCCn1nnc(Cc2cn(Cc3ccc(Cl)cc3Cl)c3ccc(C(F)(F)F)cc23)n1` came in with an IC50 in data set [1] of 0.074 µM. This compound showed a solubility at 10 min in data set [4] of under 1 µg/mL. This compound also came in with a logP in data set [5] of 4.9.

Turning to `O=C(O)CCCn1nnc(Cc2cn(Cc3ccc(Cl)cc3Cl)c3ccccc23)n1`, the inhibition in the data set listed under Sus scrofa was 32%. Also, the IC50 in data set [1] was over 10 µM.

For the compound `O=C(O)CCCCn1nnc(Cc2cn(Cc3ccc(F)cc3)c3ccccc23)n1`, the inhibition in the data set filed under Sus scrofa was 48%. Moreover, in data set [1], the IC50 is over 10 µM.

In the case of `O=C(O)CCCCn1nnc(Cc2cn(Cc3ccc(Cl)cc3Cl)c3ccc(F)cc23)n1`, in data set [1], the midpoint of inhibition, the IC50, lay at 0.2 µM. In data set [4], this compound registered a solubility at 10 min of 74 µg/mL (≈ 155 µM). The logP in data set [5] is recorded as 4.1.

The compound `O=C(O)CCCCn1nnc(Cc2cn(Cc3ccc(Cl)cc3)c3ccccc23)n1` showed an IC50 in data set [1] of 4.2 µM. This lies in the single-digit micromolar range.

`O=C(O)CCCCn1nnc(Cc2cn(Cc3ccc(Cl)cc3Cl)c3ccc(OC(F)(F)F)cc23)n1` came in with an IC50 in data set [1] of 0.57 µM.

As to `Cc1ccc2c(c1)c(Cc1nnn(CCCCC(=O)O)n1)cn2Cc1ccc(Cl)cc1Cl`, in data set [1], the IC50 is 0.21 µM. This compound returned a solubility at 10 min in data set [4] of 15 µg/mL (≈ 31.8 µM). For the same compound, the logP in data set [5] was 4.6.

Turning to `O=C(O)CCCCn1nnc(CCc2cn(Cc3ccc(Cl)cc3Cl)c3ccccc23)n1`, in data set [1], the IC50 turned out to be 4.8 µM. That is a single-digit micromolar value.

In data set [1], `O=C(O)CCCCn1nnc(Cc2cn(Cc3ccc(Cl)cc3Cl)c3cc(C(F)(F)F)ccc23)n1` had an IC50 of 0.17 µM.

Compound `O=C(O)CCCn1nnc(CCc2cn(Cc3ccc(Cl)cc3Cl)c3ccccc23)n1` registered an inhibition in the data set listed under Sus scrofa of 23%. The same compound registered an IC50 in data set [1] of over 10 µM.

In the case of `O=C(O)CCCCn1nnc(Cc2cn(Cc3ccc(Cl)cc3Cl)c3ccc(-c4ccccc4)cc23)n1`, the IC50 in data set [1] came to 3.2 µM.

On to `O=C(O)CCCCn1nnc(Cc2cn(Cc3ccc(C(F)(F)F)cc3)c3ccccc23)n1`, for which the inhibition entry in the data set listed under Sus scrofa was “inactive”.

In the data set listed under Sus scrofa, `CN(/N=C/c1cn(Cc2ccc(Cl)cc2Cl)c2ccccc12)c1ccc(C(=O)O)cc1` returned an inhibition of 27%.

Compound `O=C(O)CCCCn1nnc(-c2cn(Cc3ccc(Cl)cc3Cl)c3ccccc23)n1` yielded an inhibition in the data set filed under Sus scrofa of 48%. This compound gave an IC50 in data set [1] of over 10 µM.

The compound `COc1ccc2c(Cc3nnn(CCCCC(=O)O)n3)cn(Cc3ccc(Cl)cc3Cl)c2c1` returned an IC50 in data set [1] of 4.6 µM.

In the case of `O=C(O)CCCCn1nnc(Cc2cn(Cc3c(Cl)cccc3Cl)c3ccccc23)n1`, the inhibition in the data set filed under Sus scrofa turned out to be 19%. Also, in data set [1], the IC50 was over 10 µM.

Regarding `O=C(O)CCCCn1nnc(Cc2cn(Cc3ccc(-c4ccccc4)cc3)c3ccccc23)n1`, the inhibition in the data set listed under Sus scrofa worked out at 47%. The IC50 in data set [1] was over 10 µM.

The compound `Cc1noc(-c2cn(CCc3cn(Cc4ccc(Cl)cc4Cl)c4ccccc34)c3ccc(C(=O)O)cc23)n1` displayed an inhibition in the data set listed under Sus scrofa of 47%. In data set [1], the IC50 is over 10 µM.

As to `O=C(CCc1cn(Cc2ccc(Cl)cc2Cl)c2ccccc12)Oc1ccc(C(=O)O)cc1`, the IC50 in data set [1] stood at 6 µM. This lies in the single-digit micromolar range.

The compound `O=C(O)c1ccc(N/N=C/c2cn(Cc3cccc(Oc4ccccc4)c3)c3ccccc23)cc1` yielded an inhibition in the data set filed under Sus scrofa of 17%.

The compound `O=C(O)CCCCCn1nnc(-c2cn(Cc3ccc(Cl)cc3Cl)c3ccccc23)n1` returned an IC50 in data set [1] of 9 µM.

Take `O=C(O)c1ccc(OC(=O)c2cn(Cc3ccc(Cl)cc3Cl)c3ccccc23)cc1`: in the data set listed under Sus scrofa, the inhibition came to 45%. For the same compound, the IC50 in data set [1] was over 10 µM.

On to `O=C(O)c1ccc(N/N=C/c2cn(Cc3ccccc3Oc3ccccc3)c3ccccc23)cc1`, for which the inhibition in the data set filed under Sus scrofa amounted to 15%.

As to `O=C(O)c1ccc(N/N=C/c2cn(Cc3ccc(Oc4ccccc4)cc3)c3ccccc23)cc1`, the inhibition entry in the data set filed under Sus scrofa is “inactive”.

As to `O=C(O)c1ccc2c(cnn2CCc2cn(Cc3ccc(Cl)cc3Cl)c3ccccc23)c1`, the IC50 in data set [1] worked out at 3.8 µM.

In turn, `COc1ccc2c(c1)c(Cc1nnn(CCCCC(=O)O)n1)cn2Cc1ccc(Cl)cc1Cl` gave an IC50 in data set [1] of 4.7 µM.

The compound `O=C(O)CCCCn1nnc(Cc2cn(Cc3cccc(Cl)c3)c3ccccc23)n1` registered an inhibition in the data set listed under Sus scrofa of 33%. For the same compound, the IC50 in data set [1] was over 10 µM.

`Cc1ccc(Cn2cc(Cc3nnn(CCCCC(=O)O)n3)c3ccccc32)cc1` displayed an IC50 in data set [1] of 7 µM.

`O=C(Cc1cn(Cc2ccc(Cl)cc2Cl)c2ccccc12)Oc1ccc(C(=O)O)cc1` had an IC50 in data set [1] of 3.2 µM.

For `O=C(O)CCCCCn1nnc(Cc2cn(Cc3ccc(Cl)cc3Cl)c3ccccc23)n1`, the IC50 in data set [1] came out at 1.4 µM.

Consider `O=C(O)CCCCn1nnc(Cc2cn(Cc3ccc(Cl)c(Cl)c3)c3ccccc23)n1`, for which, in data set [1], the half-inhibitory concentration (IC50) worked out at 5.6 µM.

In the data set filed under Sus scrofa, `O=C(O)c1ccc(N/N=C/c2cn(Cc3ccc(Cl)c(Cl)c3)c3ccccc23)cc1` gave an inhibition of 20%.

On to `O=C(O)c1ccc2c(c1)c(C(=O)C(F)(F)F)cn2CCc1cn(Cc2ccc(Cl)cc2Cl)c2ccccc12`, for which, in data set [1], half-maximal inhibition (IC50) required 8 µM.

In data set [1], `O=C(O)c1ccc(OCCc2cn(Cc3ccc(Cl)cc3Cl)c3ccccc23)cc1` gave an IC50 of 1.1 µM.

Compound `Cc1c(CCOc2ccc(C(=O)O)cc2)c2cc(Cl)ccc2n1C(c1ccccc1)c1ccccc1` displayed an IC50 in data set [1] of 0.23 µM. Moreover, the solubility at 10 min in data set [4] was under 1 µg/mL. The logP in data set [5] came out at 6.2.

In data set [1], `Cc1ccc2c(Cc3nnn(CCCCC(=O)O)n3)cn(Cc3ccc(Cl)cc3Cl)c2c1` gave an IC50 of 1 µM.

Take `O=C(O)c1ccc2nn(CCc3cn(Cc4ccc(Cl)cc4Cl)c4ccccc34)cc2c1`: the inhibition in the data set filed under Sus scrofa was determined as 32%. In addition, the IC50 in data set [1] is over 10 µM.

`O=C(O)c1ccc(N/N=C/c2cn(Cc3ccccc3)c3ccccc23)cc1` displayed an inhibition in the data set listed under Sus scrofa of 16%.

Compound `O=C(O)CCCCn1nnc(Cc2cn(Cc3ccc(Cl)cc3Cl)c3ccc(-c4ccc(Cl)cc4)cc23)n1` showed an IC50 in data set [1] of 0.9 µM.

Turning to `COC(=O)c1cn(CCc2cn(Cc3ccc(Cl)cc3Cl)c3ccccc23)c2ccc(C(=O)O)cc12`, the IC50 in data set [1] is 7.1 µM.

In the data set filed under Sus scrofa, `O=C(O)c1ccc(N/N=C/c2ccc3c(ccn3Cc3ccc(Cl)cc3Cl)c2)cc1` returned an inhibition of 30%.

Turning to `O=C(O)CCCCn1nnc(Cc2cn(Cc3ccc(Cl)cc3Cl)c3ccc(OCc4ccc(Cl)cc4)cc23)n1`, the IC50 in data set [1] came to 5.3 µM. This lies in the single-digit micromolar range.

Compound `O=C(O)CCCCn1nnc(Cc2cn(Cc3ccc(Cl)cc3Cl)c3cc(Cl)ccc23)n1` had an IC50 in data set [1] of 0.36 µM.

`O=C(O)c1ccc2c(ccn2CCc2cn(Cc3ccc(Cl)cc3Cl)c3ccccc23)c1` had an inhibition in the data set listed under Sus scrofa of 41%. The compound further registered an IC50 in data set [1] of over 10 µM.

With `O=C(O)c1ccc(Cn2nnc(-c3cn(Cc4ccc(Cl)cc4Cl)c4ccccc34)n2)cc1`, the inhibition in the data set filed under Sus scrofa was determined as 37%. The compound also showed an IC50 in data set [1] of over 10 µM.

As for `O=C(O)c1ccc(N/N=C/c2cn(Cc3ccc(C(F)(F)F)cc3)c3ccccc23)cc1`, the inhibition in the data set listed under Sus scrofa amounted to 15%.

Compound `O=C(O)CCc1ccc2c(c1)c(CCc1ccccc1)cn2-c1ccc(Oc2ccccc2)cc1` had an IC50 in data set [1] of 0.29 µM. This compound also gave a solubility at 10 min in data set [4] of under 1 µg/mL. The compound further yielded a logP in data set [5] of 6.4.

The compound `O=C(O)CCCn1nnc(-c2cn(Cc3ccc(Cl)cc3Cl)c3ccccc23)n1` came in with an inhibition in the data set listed under Sus scrofa of 22%. Also, the IC50 in data set [1] was over 10 µM.

Compound `O=C(O)c1ccc2c(c1)c(C(=O)O)cn2CCc1cn(Cc2ccc(Cl)cc2Cl)c2ccccc12` gave an inhibition in the data set listed under Sus scrofa of 24%. In data set [1], this compound had an IC50 of over 10 µM.

For the compound `O=C(O)c1ccc(N/N=C/c2cn(Cc3ccc(Cl)cc3Cl)c3ccccc23)cc1`, in the data set filed under Sus scrofa, the inhibition was 21%. For the same compound, the midpoint of inhibition in data set [1], the IC50, lay at 22 µM.

For `O=C(O)c1ccc2nn(CCc3cn(Cc4ccc(Cl)cc4Cl)c4ccccc34)nc2c1`, in data set [1], the IC50 was found to be 3.9 µM.

For `O=C(O)c1ccc(N/N=C/c2cccc3c2ccn3Cc2ccc(Cl)cc2Cl)cc1`, in the data set filed under Sus scrofa, the inhibition turned out to be 24%.

In data set [1], `O=C(O)c1ccc(Cn2nnc(Cc3cn(Cc4ccc(Cl)cc4Cl)c4ccccc34)n2)cc1` had an IC50 of 2.8 µM.

With `O=C(O)CCCCn1nnc(Cc2cn(Cc3ccccc3Cl)c3ccccc23)n1`, the IC50 in data set [1] worked out at 2.9 µM.

Take `O=C(O)c1ccc(N/N=C/c2ccc3ccn(Cc4ccc(Cl)cc4Cl)c3c2)cc1`: the inhibition in the data set filed under Sus scrofa came to 32%.

In turn, `O=C(O)CCCCn1nnc(Cc2cn(Cc3ccc(Cl)cc3Cl)c3ccccc23)n1` displayed an IC50 in data set [1] of 0.71 µM. The compound also gave a solubility at 10 min in data set [4] of 152 µg/mL (≈ 332 µM). Moreover, the logP in data set [5] amounted to 4.

The values above are taken from ChEMBL document CHEMBL5344444, “1-Benzylindoles as inhibitors of cytosolic phospholipase A2α: synthesis, biological activity, aqueous solubility, and cell permeability” (RSC Med Chem, 2024).
